Measured values from US20090280153A1, “electrical devices, anti-scarring agents, and therapeutic compositions” (Angiotech International AG, priority 2005, published 2009).

Tested on: collagenase and stromelysin
Experiment: IL-1 induced collagenase and stromelysin expression in chondrocytes (FIGS. 4D, 5A-H)
Assay type: cell-based
Conditions: pretreatment with paclitaxel; FIG. 4D

For CC(=O)O[C@H]1C(=O)[C@@]2(C)[C@H]([C@H](OC(=O)c3ccccc3)[C@]3(O)C[C@H](OC(=O)[C@H](O)[C@@H](NC(=O)c4ccccc4)c4ccccc4)C(C)=C1C3(C)C)[C@]1(OC(C)=O)CO[C@@H]1C[C@@H]2O [paclitaxel], which “IL-1 induction of collagenase and stromelysin RNA levels in chondrocytes” value is on record?
The value was “inhibited”.

Tested on: bacteria and fungi
Experiment: not given
Conditions: surface drug concentration is to exceed this value; cited from earlier work

Which “concentration known to be lethal to bacteria and fungi” value (from here on “concentration known to be lethal”) does the source give for O=c1[nH]cc(F)c(=O)[nH]1 [5-fluorouracil, 5-Fluorouracil] here?
The value was 10^−4 M.

Which “concentration known to be lethal” value does the source give for COc1cccc2c1C(=O)c1c(O)c3c(c(O)c1C2=O)C[C@@](O)(C(=O)CO)C[C@@H]3O[C@H]1C[C@H](N)[C@H](O)[C@H](C)O1 [doxorubicin, Doxorubicin] here?
Its value is 10^−4 M.

For COc1cc([C@@H]2c3cc4c(cc3[C@@H](O[C@@H]3O[C@@H]5CO[C@@H](C)O[C@H]5[C@H](O)[C@H]3O)[C@H]3COC(=O)[C@H]23)OCO4)cc(OC)c1O [etoposide, Etoposide], which “concentration known to be lethal” value is on record?
The value was 10^−5 M.

Which “concentration known to be lethal” value does the source give for O=C1c2c(O)ccc(O)c2C(=O)c2c(NCCNCCO)ccc(NCCNCCO)c21 [mitoxantrone] here?
Its value is 10^−5 M.

Tested on: fibroblasts and/or smooth muscle cells, macrophages
Experiment: assays described herein (in vitro screening assays for anti-fibrosis agents)
Assay type: cell-based
Conditions: approximately; high potency (1-100) or mid-potency (100-500) agents; read-out: IC50 range in the assays described herein
Description: Agents which may inhibit fibrosis or gliosis may be readily identified based upon in vitro and in vivo (animal) models, such as those provided in Examples 39-52. Depending on their mechanisms, various agents may be effective in some, but not all screening assays for anti-fibrosis or anti-gliosis agents, and different agents may be effective in different screening assays. Agents which inhibit fibrosis can be identified through in vivo models including inhibition of intimal hyperplasia development in the rat balloon carotid artery model (Examples 44 and 61). The assays set forth in Examples 43 and 51 may be used to determine whether an agent is able to inhibit cell proliferation in fibroblasts and/or smooth muscle cells. In one aspect of the invention, the agent has an IC50 for inhibition of cell proliferation within a range of about 10^−6 to about 10^−10 M. In certain embodiments, the agent may have an IC50 for inhibition of cell proliferation of less than about 10,000 nM; or less than about 1000 nM; or less than about 100 nM. The assay set forth in Example 47 may be used to determine whether an agent may inhibit migration of fibroblasts and/or smooth muscle cells. In one aspect of the invention, the agent has an IC50 for inhibition of cell migration within a range of about 10^−6 to about 10^−9M. In certain embodiments, the agent may have an IC50 for inhibition of fibroblast or smooth muscle cell migration of less than about 10,000 nM; or less than about 1000 nM; or less than about 100 nM. Assays set forth herein may be used to determine whether an agent is able to inhibit inflammatory processes, including nitric oxide production in macrophages (Example 39), and/or TNF-alpha production by macrophages (Example 40), and/or IL-1 beta production by macrophages (Example 48), and/or IL-8 production by macrophages (Example 49), and/or inhibition of MCP-1 by macrophages (Example 50). In one aspect of the invention, the agent has an IC50 for inhibition of any one of these inflammatory processes within a range of about 10^−6 to about 10^−10M. In certain embodiments, the agent may have an IC50 for any one of these inflammatory processes of less than about 10,000 nM; or less than about 1000 nM; or less than about 100 nM. The assay set forth in Example 45 may be used to determine whether an agent is able to inhibit MMP production. In one aspect of the invention, the agent has an IC50 for inhibition of MMP production within a range of about 10^−4 to about 10^−8M. In certain embodiments, the agent may have an IC50 for inhibition of MMP production of less than about 10,000 nM; or less than about 1000 nM; or less than about 100 nM. The assay set forth in Example 46 (also known as the CAM assay) may be used to determine whether an agent is able to inhibit angiogenesis. In one aspect of the invention, the agent has an IC50 for inhibition of angiogenesis within a range of about 10^−6 to about 10^−10M. In certain embodiments, the agent may have an IC50 for inhibition of angiogenesis of less than about 10,000 nM; or less than about 1000 nM; or less than about 100 nM. The assay set forth in Example 52 may be used to determine whether an agent is able to inhibit MMP-1. In one aspect of the invention, the agent has an IC50 for inhibition of MMP-1 within a range of about 10^−6 to about 10^−10M. In certain embodiments, the agent may have an IC50 for inhibition of MMP-1 of less than about 10,000 nM; or less than about 1000 nM; or less than about 100 nM. Agents which reduce the formation of surgical adhesions may be identified through in vivo models including the rabbit surgical adhesions model (Example 42) and the rat caecal sidewall model (Example 41). […]

Which IC50 does the source give for COCc1c(C(C)C)nc(C(C)C)c(/C=C/[C@@H](O)C[C@@H](O)CC(=O)O)c1-c1ccc(F)cc1 [cerivastatin] here?
The IC50 was 1 to 100 nM.

For Nc1nc(Cl)nc2c1ncn2[C@H]1C[C@H](O)[C@@H](CO)O1 [cladribine], which IC50 is on record?
Its IC50 is 100 to 500 nM.

Which IC50 does the source give for CCC(=O)O[C@]1(C(=O)CCl)[C@@H](C)C[C@H]2[C@@H]3CCC4=CC(=O)C=C[C@]4(C)[C@@]3(F)[C@@H](O)C[C@@]21C [clobetasol propionate] here?
The IC50 was 1 to 100 nM.

Which IC50 does the source give for COC(=O)C[C@](O)(CCCC(C)(C)O)C(=O)O[C@@H]1C(OC)=C[C@]23CCCN2CCc2cc4c(cc2[C@H]13)OCO4 [homoharringtonine] here?
The IC50 was 1 to 100 nM.

For CC1=C(/C=C/C(C)=C/C=C/C(C)=C\C(=O)O)C(C)(C)CCC1 [isotretinoin], which IC50 is on record?
Its IC50 is 1 to 100 nM.

For O=C1C=CC(=O)c2c(O)cccc21 [juglone], which IC50 is on record?
Its IC50 is 100 to 500 nM.

Which IC50 does the source give for CCOC(=O)O[C@]1(C(=O)OCCl)CC[C@H]2[C@@H]3CCC4=CC(=O)C=C[C@]4(C)[C@H]3[C@@H](O)C[C@@]21C [loteprednol etabonate] here?
Its IC50 is 100 to 500 nM.

For O=C[C@@H](O)[C@@H](O)[C@H](O)[C@H](O)COP(=O)(O)O [mannose-6-phosphate], which IC50 is on record?
Its IC50 is 100 to 500 nM.

Which IC50 does the source give for Cc1ccc(=O)n(-c2ccccc2)c1 [pirfenidone] here?
Its IC50 is 1 to 100 nM.

Which IC50 does the source give for C[C@]12C=CC(=O)C=C1CC[C@@H]1[C@@H]2[C@@H](O)C[C@@]2(C)[C@H]1CC[C@]2(O)C(=O)CO [prednisolone] here?
The IC50 was 100 to 500 nM.

For COc1ccc(C[C@H](N)C(=O)N[C@H]2[C@@H](O)[C@H](n3cnc4c(N(C)C)ncnc43)O[C@@H]2CO)cc1 [puromycin], which IC50 is on record?
Its IC50 is 100 to 500 nM.

For C[C@@H]1C[C@H]2O[C@@H]2/C=C\C=C\C(=O)Cc2c(Cl)c(O)cc(O)c2C(=O)O1 [radicicol], which IC50 is on record?
The IC50 was 1 to 100 nM.

Which IC50 does the source give for C=CC[C@@H]1/C=C(\C)C[C@H](C)C[C@H](OC)[C@H]2O[C@@](O)(C(=O)C(=O)N3CCCC[C@H]3C(=O)O[C@H](/C(C)=C/[C@@H]3CC[C@@H](O)[C@H](OC)C3)[C@H](C)[C@@H](O)CC1=O)[C@H](C)C[C@@H]2OC [tacrolimus] here?
Its IC50 is 1 to 100 nM.

For C/C=C(/C)C(=O)O[C@H]1C(C)=C2[C@H]([C@@H]1OC(=O)CCCCCCC)[C@@](C)(OC(C)=O)C[C@H](OC(=O)CCC)[C@@]1(O)[C@H]2OC(=O)[C@@]1(C)O [thapsigargin], which IC50 is on record?
The IC50 was 1 to 100 nM.

Which IC50 does the source give for CCC1=C[C@@H]2CN(C1)Cc1c([nH]c3ccccc13)[C@@](C(=O)OC)(c1cc3c(cc1OC)N(C)[C@H]1[C@@](O)(C(=O)OC)[C@H](OC(C)=O)[C@]4(CC)C=CCN5CC[C@]31[C@@H]54)C2 [vinorelbine] here?
The IC50 was 1 to 100 nM.

Same assay, conditions: approximately; low potency agents; read-out: IC50 range in the assays described herein

For Nc1ncn([C@@H]2O[C@H](CO)[C@@H](O)[C@H]2O)c(=O)n1 [5-azacytidine], which IC50 is on record?
The IC50 was 500 to 1000 nM.

For CN(C)C[C@@H]1CCn2cc(c3ccccc32)C2=C(C(=O)NC2=O)c2cn(c3ccccc23)CCO1 [Ly333531 (ruboxistaurin), ruboxistaurin], which IC50 is on record?
The IC50 was 500 to 1000 nM.

With CCC(C)(C)C(=O)O[C@H]1C[C@@H](C)C=C2C=C[C@H](C)[C@H](CC[C@@H]3C[C@@H](O)CC(=O)O3)[C@H]21 [simvastatin] as the compound, how does the IC50 read?
Its IC50 is 500 to 1000 nM.

Tested on: AP-1
Experiment: IL-1 induced AP-1 binding activity in chondrocyte lysates (FIG. 4C)
Assay type: cell-based
Conditions: chondrocytes pretreated with paclitaxel

For CC(=O)O[C@H]1C(=O)[C@@]2(C)[C@H]([C@H](OC(=O)c3ccccc3)[C@]3(O)C[C@H](OC(=O)[C@H](O)[C@@H](NC(=O)c4ccccc4)c4ccccc4)C(C)=C1C3(C)C)[C@]1(OC(C)=O)CO[C@@H]1C[C@@H]2O [paclitaxel], which “IL-1 induced binding activity in lysates from chondrocytes” value is on record?
The value was “decreased”.
